Measurements as given in patent US11185531B2, “Arginine methyltransferase inhibitors and uses thereof” (Epizyme, Inc., priority 2013, dated 2021).

Key:
human PRMT6 = target: T1, human PRMT6 (Homo sapiens, UniProt Q96LA8); experiment: PRMT6 Biochemical Assay (3H-SAM Flashplate, peptide substrate); conditions: 30 min preincubation
T1 construct: Flag-PRMT6-His was eluted with 200 ug/ml FLAG peptide in the same buffer; made in house; host or cells: HEK 293F cells (BacMam baculovirus, pFastBacMam)
Description: Peptide representative of human histone H4 residues 36-50 was synthesized with an N-terminal linker-affinity tag motif and a C-terminal amide cap by 21st Century Biochemicals. The peptide was purified by high-performance liquid chromatography (HPLC) to greater than 95% purity and confirmed by liquid chromatography mass spectrometry (LC-MS). The sequence was Biot-Ahx-[…]-amide and contained a monomethylated lysine at position 44 (SEQ ID NO:5).
Full-length human PRMT6 (NM_018137.2) transcript clone was amplified from an HEK 293 cDNA library, incorporating a flanking 5′ sequence encoding a FLAG tag ([…]) (SEQ ID NO:6) fused directly to Ser 2 of PRMT6 and a 3′ sequence encoding a hexa His sequence (HHHHHH) fused directly to Asp 375. The amplified gene was subcloned into pFastBacMam (Viva Biotech).
Column was washed with 20 mM imidazole in the same buffer and Flag-PRMT6-His was eluted with 150 mM imidazole. Pooled fractions were dialysed against buffer Ni-A and further purified by anti-flag M2 affinity chromatography. Flag-PRMT6-His was eluted with 200 ug/ml FLAG peptide in the same buffer. Pooled fractions were dialysed in 20 mM Tris, 150 mM NaCl, 10% glycerol and 5 mM 3-mercaptoethanol, pH 7.8. The purity of recovered protein was 95%.
General Procedure for PRMT6 Enzyme Assays on Peptide Substrates.
The assays were all performed in a buffer consisting of 20 mM Bicine (pH=7.6), 1 mM TCEP, 0.005% BSG, and 0.002% Tween 20, prepared on the day of use. Compounds in 100% DMSO (1 ul) were spotted into a polypropylene 384-well V-bottom plates (Greiner) using a Platemate Plus outfitted with a 384-channel head (Thermo Scientific). DMSO (1 ul) was added to Columns 11, 12, 23, 24, rows A-H for the maximum signal control and 1 ul of SAH, a known product and inhibitor of PRMT6, was added to columns 11, 12, 23, 24, rows I-P for the minimum signal control. A cocktail (40 ul) containing the PRMT6 enzyme was added by Multidrop Combi (Thermo-Fisher). The compounds were allowed to incubate with PRMT6 for 30 min at room temperature, then a cocktail (10 ul) containing SAM and peptide was added to initiate the reaction (final volume=51 ul). The final concentrations of the components were as follows: PRMT6 was 1 nM, ^3H-SAM was 200 nM, non-radiolabeled SAM was 250 nM, peptide was 75 nM, SAH in the minimum signal control wells was 1 mM, and the DMSO concentration was 2%. The assays were stopped by the addition of non-radiolabeled SAM (10 ul) to a final concentration of 400 uM, which dilutes the ^3H-SAM to a level where its incorporation into the peptide substrate is no longer detectable. 50 ul of the reaction in the 384-well polypropylene plate was then transferred to a 384-well Flashplate and the biotinylated peptides were allowed to bind to the streptavidin surface for at least 1 hour before being washed once with 0.1% Tween20 in a Biotek ELx405 plate washer. The plates were then read in a PerkinElmer TopCount plate reader to measure the quantity of ^3H-labeled peptide bound to the Flashplate surface, measured as disintegrations per minute (dpm) or alternatively, referred to as counts per minute (cpm).
(§1) Where dpm=disintegrations per minute, cmpd=signal in assay well, and min and max are the respective minimum and maximum signal controls.
(§2) Where top and bottom are the normally allowed to float, but may be fixed at 100 or 0 respectively in a 3-parameter fit. The Hill Coefficient normally allowed to float but may also be fixed at 1 in a 3-parameter fit. Y is the % inhibition and X is the compound concentration.

human PRMT8 = target: T2, human PRMT8 (Homo sapiens, UniProt Q9NR22); experiment: PRMT8 Biochemical Assay (3H-SAM Flashplate, peptide substrate); conditions: 30 min preincubation
T2 construct: Full-length human PRMT8 (NM_019854.4) isoform 1 transcript clone; GST (N, cleaved yes); made in house; host or cells: E. coli BL21(DE3) Gold
Description: Peptide representative of human histone H4 residues 31-45 was synthesized with an N-terminal linker-affinity tag motif and a C-terminal amide cap by 21st Century Biochemicals. The peptide was purified by high-performance liquid chromatography (HPLC) to greater than 95% purity and confirmed by liquid chromatography mass spectrometry (LC-MS). The sequence was Biot-Ahx-[…]-amide (SEQ ID NO:8).
The resulting construct encodes an N-terminal GST tag and a thrombin cleavage sequence
GST-tagged PRMT8 was eluted with 50 mM Tris, 2 mM glutathione, pH 7.8. Pooled fractions were cleaved by thrombin (10 U) and dialysed in buffer A. GST was removed by reloading the cleaved protein sample onto glutathione sepharose column and PRMT8 was collected in the flow-through fractions. PRMT8 was purified further by ceramic hydroxyapatite chromatography. The column was washed with 50 mM phosphate buffer, 100 mM NaCl, 5% glycerol, 5 mM 3-mercaptoethanol, pH 7.8 and PRMT8 was eluted by 100 mM phosphate in the same buffer. Protein was concentrated and buffer was exchanged to 50 mM Tris, 300 mM NaCl, 10% glycerol, 5 mM β-mercaptoethanol, pH 7.8 by ultrafiltration. The purity of recovered protein was 89%.
General Procedure for PRMT8 Enzyme Assays on Peptide Substrates.
The assays were all performed in a buffer consisting of 20 mM Bicine (pH=7.6), 1 mM TCEP, 0.005% BSG, and 0.002% Tween 20, prepared on the day of use. Compounds in 100% DMSO (1 ul) were spotted into a polypropylene 384-well V-bottom plates (Greiner) using a Platemate Plus outfitted with a 384-channel head (Thermo Scientific). DMSO (1 ul) was added to Columns 11, 12, 23, 24, rows A-H for the maximum signal control and 1 ul of SAH, a known product and inhibitor of PRMT8, was added to columns 11, 12, 23, 24, rows I-P for the minimum signal control. A cocktail (40 ul) containing the PRMT8 enzyme was added by Multidrop Combi (Thermo-Fisher). The compounds were allowed to incubate with PRMT8 for 30 min at room temperature, then a cocktail (10 ul) containing ^3H-SAM and peptide was added to initiate the reaction (final volume=51 ul). The final concentrations of the components were as follows: PRMT8 was 1.5 nM, ^3H-SAM was 50 nM, non-radiolabeled SAM was 550 nM, peptide was 150 nM, SAH in the minimum signal control wells was 1 mM, and the DMSO concentration was 2%. The assays were stopped by the addition of non-radiolabeled SAM (10 ul) to a final concentration of 400 uM, which dilutes the ^3H-SAM to a level where its incorporation into the peptide substrate is no longer detectable. 50 ul of the reaction in the 384-well polypropylene plate was then transferred to a 384-well Flashplate and the biotinylated peptides were allowed to bind to the streptavidin surface for at least 1 hour before being washed once with 0.1% Tween20 in a Biotek ELx405 plate washer. The plates were then read in a PerkinElmer TopCount plate reader to measure the quantity of ^3H-labeled peptide bound to the Flashplate surface, measured as disintegrations per minute (dpm) or alternatively, referred to as counts per minute (cpm).
as §1, §2

T2 sequence (Q9NR22 whole entry, canonical isoform): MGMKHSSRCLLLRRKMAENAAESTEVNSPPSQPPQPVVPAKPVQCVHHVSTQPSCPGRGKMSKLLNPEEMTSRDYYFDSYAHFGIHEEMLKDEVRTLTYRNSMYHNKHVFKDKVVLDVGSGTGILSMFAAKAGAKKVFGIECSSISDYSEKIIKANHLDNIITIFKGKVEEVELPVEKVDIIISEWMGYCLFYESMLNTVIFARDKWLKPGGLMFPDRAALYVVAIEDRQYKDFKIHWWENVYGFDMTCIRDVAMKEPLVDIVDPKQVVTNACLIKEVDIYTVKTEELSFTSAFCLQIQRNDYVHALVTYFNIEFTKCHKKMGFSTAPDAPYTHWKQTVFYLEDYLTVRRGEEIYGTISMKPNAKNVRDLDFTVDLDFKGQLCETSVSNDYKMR
T1 sequence (Q96LA8 with tags, fused parts or gaps): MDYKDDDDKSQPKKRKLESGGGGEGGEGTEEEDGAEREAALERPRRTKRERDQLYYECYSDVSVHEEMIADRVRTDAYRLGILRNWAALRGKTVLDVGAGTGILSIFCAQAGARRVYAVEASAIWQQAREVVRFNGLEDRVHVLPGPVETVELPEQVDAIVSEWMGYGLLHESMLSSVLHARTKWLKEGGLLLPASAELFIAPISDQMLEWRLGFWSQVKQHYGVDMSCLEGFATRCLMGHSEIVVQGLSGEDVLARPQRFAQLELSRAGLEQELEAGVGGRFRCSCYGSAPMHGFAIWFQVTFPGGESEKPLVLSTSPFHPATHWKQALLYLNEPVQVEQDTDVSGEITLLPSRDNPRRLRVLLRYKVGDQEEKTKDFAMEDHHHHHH

Row | SMILES | IC50 (human PRMT6) [nM] | IC50 (human PRMT8) [nM]
1 | CNCCN(C)Cc1c[nH]nc1C#Cc1cccc(OC)c1 [Compound 1] | < 100 | 101 to 1000
2 | CNCCN(C)Cc1c[nH]nc1C#Cc1ccc(C(C)(C)C)cc1 [Compound 2] | < 100 | 101 to 1000
3 | CNCCN(C)Cc1c[nH]nc1C#Cc1ccccc1 [Compound 3] | < 100 | 101 to 1000
4 | CNCCN(C)Cc1c[nH]nc1C#Cc1ccc(F)cc1 [Compound 4] | < 100 | 101 to 1000
5 | CNCCN(C)Cc1c[nH]nc1/C=C/c1ccc(-c2ccccc2)cc1 [Compound 5] | < 100 | 101 to 1000
6 | CNCCN(C)Cc1c[nH]nc1/C=C/c1ccc(C(F)(F)F)cc1 [Compound 6] | < 100 | 101 to 1000
7 | CNCCN(C)Cc1c[nH]nc1/C=C/c1ccc(OC)cc1 [Compound 7] | < 100 | 101 to 1000
8 | Cc1ccc(/C=C/c2n[nH]cc2CN(C)CCN)cc1 [Compound 8] | < 100 | 101 to 1000
9 | CN(CCN)Cc1c[nH]nc1C1=CCOCC1 [Compound 10] | 101 to 1000 | 1010 to 3000
10 | COc1cc(/C=C/c2n[nH]cc2CN(C)CCN)cc(OC)c1 [Compound 11] | < 100 | 101 to 1000
11 | CN(CCN)Cc1c[nH]nc1/C=C/c1ccc(F)cc1F [Compound 13] | < 100 | 101 to 1000
12 | CN(CCN)Cc1c[nH]nc1/C=C/c1cc(C(F)(F)F)cc(C(F)(F)F)c1 [Compound 14] | 101 to 1000 | 101 to 1000
13 | CN(CCN)Cc1c[nH]nc1/C=C/c1cc(F)cc(F)c1 [Compound 15] | < 100 | 101 to 1000
14 | CN(CCN)Cc1c[nH]nc1/C=C/c1cccc(C(F)(F)F)c1 [Compound 16] | 101 to 1000 | 101 to 1000
15 | COc1cccc(/C=C/c2n[nH]cc2CN(C)CCN)c1 [Compound 17] | < 100 | 101 to 1000
16 | CN(CCN)Cc1c[nH]nc1/C=C/c1ccc(C(F)(F)F)cc1 [Compound 18] | < 100 | < 100
17 | COC/C=C/c1n[nH]cc1CN(C)CCN [Compound 19] | 101 to 1000 | 1010 to 3000
18 | CN(CCN)Cc1c[nH]nc1/C=C/c1cccc(F)c1 [Compound 20] | < 100 | 101 to 1000
19 | CC(C)c1n[nH]cc1CN(C)CCN [Compound 21] | 101 to 1000 | 3010 to 10000
20 | CN(CCN)Cc1c[nH]nc1C1CCCCC1 [Compound 22] | < 100 | 101 to 1000

Row | SMILES | IC50 (human PRMT6) [nM] | IC50 (human PRMT8) [nM]
21 | CN(CCN)Cc1c[nH]nc1CCc1ccc(F)cc1 [Compound 23, N^1-((3-(4-fluorophenethyl)-1H-pyrazol-4-yl)methyl)-N^1-methylethane-1,2-diamine] | < 100 | 101 to 1000
22 | CN(CCN)Cc1c[nH]nc1/C=C/Cc1ccccc1 [Compound 24] | 101 to 1000 | 101 to 1000
23 | CN(CCN)Cc1c[nH]nc1C1=CCCC1 [Compound 25] | 101 to 1000 | 1010 to 3000
24 | CN(CCN)Cc1c[nH]nc1C1CCC1 [Compound 26] | 101 to 1000 | 3010 to 10000
25 | CC(C)Cc1n[nH]cc1CN(C)CCN [Compound 28, N^1-((3-iso-butyl-1H-pyrazol-4-yl)methyl)-N^1-methylethane-1,2-diamine] | < 100 | 1010 to 3000
26 | CCCc1n[nH]cc1CN(C)CCN [Compound 29] | 101 to 1000 | 1010 to 3000
27 | Cc1n[nH]cc1CN(C)CCN [Compound 30] | 101 to 1000 | 3010 to 10000
28 | CN(CCN)Cc1c[nH]nc1C1CCCC1 [Compound 31] | 3010 to 10000 | > 10000
29 | CNCCN(C)Cc1c[nH]nc1C1CCN(C(=O)Cc2ccccc2)CC1 [Compound 32] | < 100 | 1010 to 3000
30 | CN(CCN)Cc1n[nH]cc1C1CCCCC1 [Compound 33] | < 100 | 101 to 1000
31 | CNCCN(C)Cc1c[nH]nc1C1CCN(C(=O)C(C)C)CC1 [Compound 34] | < 100 | 101 to 1000
32 | CC1CCC(c2c[nH]nc2CN(C)CCN)CC1 (centres unmarked) [Compound 35] | < 100 | 101 to 1000
33 | CN(CCN)Cc1n[nH]cc1C1CCC(C)(C)CC1 [Compound 36] | < 100 | 101 to 1000
34 | CC1CCC(c2n[nH]cc2CN(C)CCN)CC1 (centres unmarked) [Compound 37, N^1-methyl-N^1-((3-(4-methylcyclohexyl)-1H-pyrazol-4-yl)methyl)ethane-1,2-diamine] | < 100 | 101 to 1000
35 | CN(CCN)Cc1c[nH]nc1C1CCC(C)(C)CC1 [Compound 38, N^1-((3-(4,4-dimethylcyclohexyl)-1H-pyrazol-4-yl)methyl)-N^1-methylethane-1,2-diamine] | < 100 | 101 to 1000
36 | CNCCN(C)Cc1c[nH]nc1C1CCN(CC(C)C)CC1 [Compound 39, N^1-((3-(1-isobutylpiperidin-4-yl)-1H-pyrazol-4-yl)methyl)-N^1,N^2-dimethylethane-1,2-diamine] | < 100 | 101 to 1000
37 | CNCCN(C)Cc1c[nH]nc1C1CCN(C)CC1 [Compound 41] | < 100 | 3010 to 10000
38 | CNCCN(C)Cc1c[nH]nc1C1CCNCC1 [Compound 42] | < 100 | 101 to 1000
39 | CN(CCN)Cc1n[nH]cc1C1CCC(N2CCOCC2)CC1 (centres unmarked) [Compound 44, N^1-methyl-N^1-((4-(4-morpholinocyclohexyl)-1H-pyrazol-3-yl)methyl)ethane-1,2-diamine] | 101 to 1000 | –
